Laboratory results reported in US6602664B2 (priority 1998, dated 2003).
Values joined by “and” are separate entries in the source; they are usually repeats but may differ in a detail not shown here. Equal entries are not always repeated. Where two headings read alike, the source gives them in different places.

Assays:
[1] = tested on: drug-resistant HIV-1 in MT-4; assay: microbe, parasite or virus in culture; assay type: cell-based
[2] = tested on: drug-resistant HIV-1 in MT-2; assay: microbe, parasite or virus in culture; assay type: cell-based; conditions: MT-2
[3] = tested on: drug-resistant HIV-1 in PBMC; assay: microbe, parasite or virus in culture; assay type: cell-based; conditions: for EC50: Human immunodeficiency virus 1, PBMC, PBMC
[4] = tested on: drug-resistant HIV-1 in HeLa HT4-6C; assay: microbe, parasite or virus in culture; assay type: cell-based; conditions: Human immunodeficiency virus 1, HeLa
[5] = tested on: HIV-1 replication in human PBM cells; assay: microbe, parasite or virus in culture; assay type: cell-based
Procedure: Cells and viruses. […] Antimicrobial Agents Chemother 1992;36(11): 2423-2431.
Cell pellets were washed, centrifuged, lysed and the proviral DNA extracted as previously described. Cytotoxicity of the compounds was determined using the Promega Cell Titer 96 dye uptake assay (Madison, Wis.) in 1-2 day PHA-stimulated PBM cells after 5 days in culture. The median effective concentration (EC50) and inhibitory concentration (IC50) were derived from the computer-generated median effect plot of the dose-effect data, as described previously.

HIV = conditions: U.S. Pat. No. 4,916,122; cited from earlier work
[6] = tested on: recombinant HIV-1 virus isolates; assay type: cell-based
Description: The aim of the study was to determine the potency of the inhibitory effect of a new generation of NRTIs on Multi Drug Resistant isolates and to compare it with their effect on wild-type HIV-1 isolates. All recombinant viruses were taken from the VIRCO repository of phenotypically and genotypically characterized virus isolates. Hirsch et al. Antiretroviral Drug Resistance Testing in Adults with HIV Infection. JAMA; 1998: 79(24) 1984-1991. See also Pauwels et al. Comprehensive HIV drug Resistance monitoring using rapid, high-throughput phenotypic and genotypic assays with correlative data analysis. Antiviral Therapy, 1998: 3: 35 Abstract 51.
Phenotypic drug susceptibility determination of recombinant virus isolates is described in Hertogs et al. A Rapid Method for Simultaneous Detection of Phentypic Resistance to Inhibitors of Protease and Reverse Transcriptase in Recombinant HIV-1 Isolates from Patients Treated with Antiretroviral Drugs. Antimicrob. Agents Chemother. 1998; 42(2): 269-276. The basic principle of the Antivirogram® technology is the construction of chimeric HIV-1 strains composed of the protease (PR) and reverse transcriptase (RT) gene sequences which are isolated and amplified from patient viral RNA. Amplicons are subsequently transfected into CD4+T cells together with a standard laboratory isogenic (HXB2) HIV-1 DNA construct from which the PR/RT gene sequences were deleted. After homologous recombination, new viruses whose diversity reflects the original population amplified from the plasma are produced at high level from these cells.
The virus infectivity (CCID50) is determined by an end-point dilution method. The titer is calculated from the degree of infection, measured by the intensity of reporter-gene signal as generated by serial dilutions of the virus shock. The chimeric (clinical isolates and wild-type reference) viruses are then analyzed for their phenotypic sensitivity (i.e. susceptibility) to the different PR and RT-inhibitors in an automated reporter gene-based assay using serial dilutions of the compound. The standardisation of the Antivirogram®n assay allows for simultaneous testing of all clinically approved drugs in one 384-well microtiter plate. The experimental drugs are included in separate plates. Each plate contains multiple replicates of mock-infected wells, virus-infection control wells and blank (medium-only) well. All plates are tested in duplicate. 50% Inhibitory concentrations are calculated based on reporter signals obtained through optical reading of 384-well plates containing serial dilutions of compounds, a normalised quantity of virus and by taking into account all relevant control wells. Approval (or not) is done according to critical ranges and settings as described in the corresponding VIRCO Standard Operating Procedure.
A more detailed description of the protocol is as follows. Samples were stored frozen. […] To confirm the genotypic pattern, genotyping (ABI-sequencing) was performed after recombination and culture of the laboratory strains by analysis of cell viability, calculation of results (dose-response curves, IC50 values), and reporting of data.

[7] = clinical isolate (pre) prior to long-term ZDV monotherapy, row HIV-1 (A012D), read-out: Untreated EC50
[8] = clinical isolate HIV-1 (A012D:M41L?/D67N/K70R/T215F/K219Q), read-out: Selected Varient EC50
[9] = Human immunodeficiency virus 1, PBMC, 144 h

[N-]=[N+]=N[C@H]1C[C@H](n2ccc(=O)[nH]c2=O)O[C@@H]1CO [CS-87, 3′-Azido-2′,3′-dideoxyuridine]
EC50 ([1]; Human immunodeficiency virus 1, MT4, clinical isolate (pre) prior to long-term ZDV monotherapy, row HIV-1 (A-161), read-out: Untreated EC50): 0.6 µM | EC50 ([1]; Human immunodeficiency virus 1, MT4, clinical isolate (pre) prior to long-term ZDV monotherapy, row HIV-1 (C-246), read-out: Untreated EC50): 0.6 µM | EC50 ([1]; Human immunodeficiency virus 1, MT4, clinical isolate (pre) prior to long-term ZDV monotherapy, row HIV-1 (G-68), read-out: Untreated EC50): 0.6 µM | EC50 ([1]; Human immunodeficiency virus 1, MT4, clinical isolate (pre) prior to long-term ZDV monotherapy, row HIV-1 (R-102), read-out: Untreated EC50): 0.6 µM | EC50 ([1]; Human immunodeficiency virus 1, MT4, clinical isolate (pre) prior to long-term ZDV monotherapy, row HIV-1 (X-78), read-out: Untreated EC50): 0.6 µM | EC50 ([1]; Human immunodeficiency virus 1, MT4, clinical isolate HIV-1 (A-161), long-term ZDV monotherapy, read-out: Selected Varient EC50): 8.6 µM | EC50 ([1]; Human immunodeficiency virus 1, MT4, clinical isolate HIV-1 (C-246), long-term ZDV monotherapy, read-out: Selected Varient EC50): 10.3 µM | EC50 ([1]; Human immunodeficiency virus 1, MT4, clinical isolate HIV-1 (G-68), long-term ZDV monotherapy, read-out: Selected Varient EC50): 0.5 µM | EC50 ([1]; Human immunodeficiency virus 1, MT4, clinical isolate HIV-1 (R-102), long-term ZDV monotherapy, read-out: Selected Varient EC50): 0.3 µM | EC50 ([1]; Human immunodeficiency virus 1, MT4, clinical isolate HIV-1 (X-78), long-term ZDV monotherapy, read-out: Selected Varient EC50): 0.5 µM | EC50 ([2]; Human immunodeficiency virus 1, MT2, molecular clone HIV-1 (D67N/K70R/M184V/T215Y/K219Q), read-out: Selected Varient EC50): 53.4 µM | EC50 ([2]; Human immunodeficiency virus 1, MT2, molecular clone HIV-1 (D67N/K70R/T215Y/K219Q), read-out: Selected Varient EC50): > 90 µM | EC50 ([2]; Human immunodeficiency virus 1, MT2, molecular clone HIV-1 (M41L/D67N/M184V/H208Y/L210W/R211K/L214F/T215Y), read-out: Selected Varient EC50): 50.2 µM | EC50 ([2]; Human immunodeficiency virus 1, MT2, molecular clone HlV-1 (M184V), read-out: Selected Varient EC50): 16.8 µM | EC50 ([2]; Human immunodeficiency virus 1, MT2, parent strain HIV-1 (xxLAI), row HIV-1 (D67N/K70R/M184V/T215Y/K219Q), read-out: Untreated EC50): 20 µM | EC50 ([2]; Human immunodeficiency virus 1, MT2, parent strain HIV-1 (xxLAI), row HIV-1 (D67N/K70R/T215Y/K219Q), read-out: Untreated EC50): 20 µM | EC50 ([2]; Human immunodeficiency virus 1, MT2, parent strain HIV-1 (xxLAI), row HIV-1 (M41L/D67N/M184V/H208Y/L210W/R211K/L214F/T215Y), read-out: Untreated EC50): 20 µM | EC50 ([2]; Human immunodeficiency virus 1, MT2, parent strain HIV-1 (xxLAI), row HlV-1 (M184V), read-out: Untreated EC50): 20 µM | fold change in EC50 [3]: < 3 fold | EC50 [3, 7]: 0.4 µM | EC50 [3, 8]: 16.5 µM | EC50 ([3]; molecular clone 1 (T215Y/M41L), read-out: Selected Varient EC50): 2.1 µM | EC50 ([3]; molecular clone (M184V/T215Y), read-out: Selected Varient EC50): 1.1 µM | EC50 ([3]; molecular clone HIV-1 (D67N/K70R/T215Y/K219Q), read-out: Selected Varient EC50): 0.3 µM | EC50 ([3]; molecular clone HIV-1 (K65R), read-out: Selected Varient EC50): 1.1 µM | EC50 ([3]; molecular clone HIV-1 (L74V), read-out: Selected Varient EC50): 0.6 µM | EC50 ([3]; molecular clone HIV-1 (M184V), read-out: Selected Varient EC50): 0.6 µM | EC50 ([3]; molecular clone HIV-1 (T215Y), read-out: Selected Varient EC50): 0.3 µM | EC50 ([3]; parent strain HIV-1 (xxLAI), row 1 (T215Y/M41L), read-out: Untreated EC50): 1.1 µM | EC50 ([3]; parent strain HIV-1 (xxLAI), row (M184V/T215Y), read-out: Untreated EC50): 1.1 µM | EC50 ([3]; parent strain HIV-1 (xxLAI), row HIV-1 (D67N/K70R/T215Y/K219Q), read-out: Untreated EC50): 1.1 µM | EC50 ([3]; parent strain HIV-1 (xxLAI), row HIV-1 (K65R), read-out: Untreated EC50): 1.1 µM | EC50 ([3]; parent strain HIV-1 (xxLAI), row HIV-1 (L74V), read-out: Untreated EC50): 1.1 µM | EC50 ([3]; parent strain HIV-1 (xxLAI), row HIV-1 (M184V), read-out: Untreated EC50): 1.1 µM | EC50 ([3]; parent strain HIV-1 (xxLAI), row HIV-1 (T215Y), read-out: Untreated EC50): 1.1 µM | EC50 [4, 7]: 0.4 µM | EC50 ([4]; clinical isolate (pre) prior to long-term ZDV monotherapy, row HIV-1 (A018C), read-out: Untreated EC50): 1 µM | EC50 ([4]; clinical isolate (pre) prior to long-term ZDV monotherapy, row HIV-1 (A036DD), read-out: Untreated EC50): 0.6 µM | EC50 ([4]; clinical isolate (pre) prior to long-term ZDV monotherapy, row HIV-1 (P022C), read-out: Untreated EC50): 0.4 µM | EC50 ([4]; clinical isolate (pre) prior to long-term ZDV monotherapy, row HIV-1 (P026B), read-out: Untreated EC50): 0.4 µM | EC50 [4, 8]: 89 µM | EC50 ([4]; clinical isolate HIV-1 (A018C:D67N/K70R/T215Y/K219Q), read-out: Selected Varient EC50): 50 µM | EC50 ([4]; clinical isolate HIV-1 (A036DD:M41L/D67N/K70R/T215Y), read-out: Selected Varient EC50): 56 µM | EC50 ([4]; clinical isolate HIV-1 (P022C:M41L?/D67N/K70R/T215F/K219Q), read-out: Selected Varient EC50): 40 µM | EC50 ([4]; clinical isolate HIV-1 (P026B:M41L?/D67N/K70R/T215Y), read-out: Selected Varient EC50): 100 µM | m ± SE (slope of median effect plot) [5]: 1.62 ± 0.13 and 1.50 ± 0.33 and 1.01 ± 0.01 | inhibition at 10 µM [5, 9]: 34.5% | inhibition at 100 µM [5, 9]: 32% | inhibition at 1000 µM [5, 9]: 87.3% | anti-HIV activity (HIV): significant anti-HIV activity | activity against multiple-drug resistant forms of HIV [6]: active | susceptibility of multiple dideoxynucleoside resistant viruses [6]: resistant
